Reference: patent US7423053B2, “4-Aminothiazole derivatives” (Hoffmann-La Roche Inc., priority 2004, dated 2008)

Key:
Format in all cases: biochemical
Settings in all cases: Rb substrate, ATP at 3x Km, Ki=IC50/(1+S/Km)
human cyclin B-CDK1 = human cyclin B-CDK1 (Homo sapiens, UniProt P06493); test: CDK1 HTRF kinase assay (Ki measurement)
Procedure: (§1) This experiment was conducted using recombinant human cyclin B-CDK1, human cyclin E-CDK2 or human cyclin D1-CDK4 complexes. GST-cyclinE (GST-cycE), CDK2, GST-cyclinB (GST-cycB), CDK1, GST-CDK4 and cyclin D1 (cycD1) cDNA clones in baculovirus vectors were provided by Dr. W. Harper at the Baylor College of Medicine, Houston, Tex. Proteins were co-expressed in High Five™ insect cells and the complex was purified on glutathione Sepharose resin (Pharmacia, Piscataway, N.J.) as previously described (Harper, J. W. et al. Cell 1993, 75, 805-816). […]
(§2) The expression of the 62 Kd protein was under the control of an IPTG inducible promoter in an M15 E. coli strain. […] Purified Rb fusion protein stocks were quantitated for protein concentration, aliquoted, and stored at −70° C.
(§3) Using the protein constructs described above, CDK1, CDK2, and CDK4 HTRF assays were set up. These were done in 96-well format and read in 384-well plate format. […]
(§4) In the CDK4 assay, test compounds were diluted to 3× ntheir final concentrations in 25 mM Hepes, pH 7.0, 6.25 mM MgCl2, 1.5 mM DTT, 135 μM ATP. […] The plates were read using either ViewLux or Victor V readers (PerkinElmer Life Sciences) using an excitation wavelength of 340 nm and dual emission wavelengths of 615 nm and 665 nm. […]

human cyclin E-CDK2 = human cyclin E-CDK2 (Homo sapiens, UniProt P24941); test: CDK2 HTRF kinase assay (Ki measurement)
Procedure: as §1, §2, §3, §4

human cyclin D1-CDK4 = human cyclin D1-CDK4 (Homo sapiens, UniProt P11802); test: CDK4 HTRF kinase assay (Ki measurement)
Procedure: as §1, §2, §3, §4

Chain of human cyclin B-CDK1 (P06493 whole entry): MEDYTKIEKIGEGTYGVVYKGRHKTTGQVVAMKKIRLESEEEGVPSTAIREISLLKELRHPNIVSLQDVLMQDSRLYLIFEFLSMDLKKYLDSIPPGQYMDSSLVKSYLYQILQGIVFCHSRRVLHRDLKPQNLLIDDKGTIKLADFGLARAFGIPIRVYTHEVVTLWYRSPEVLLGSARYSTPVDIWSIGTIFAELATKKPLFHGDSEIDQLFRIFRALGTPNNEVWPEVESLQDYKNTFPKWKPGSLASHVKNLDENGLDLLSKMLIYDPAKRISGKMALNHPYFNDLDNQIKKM
Chain of human cyclin B-CDK1 (P14635 whole entry partner): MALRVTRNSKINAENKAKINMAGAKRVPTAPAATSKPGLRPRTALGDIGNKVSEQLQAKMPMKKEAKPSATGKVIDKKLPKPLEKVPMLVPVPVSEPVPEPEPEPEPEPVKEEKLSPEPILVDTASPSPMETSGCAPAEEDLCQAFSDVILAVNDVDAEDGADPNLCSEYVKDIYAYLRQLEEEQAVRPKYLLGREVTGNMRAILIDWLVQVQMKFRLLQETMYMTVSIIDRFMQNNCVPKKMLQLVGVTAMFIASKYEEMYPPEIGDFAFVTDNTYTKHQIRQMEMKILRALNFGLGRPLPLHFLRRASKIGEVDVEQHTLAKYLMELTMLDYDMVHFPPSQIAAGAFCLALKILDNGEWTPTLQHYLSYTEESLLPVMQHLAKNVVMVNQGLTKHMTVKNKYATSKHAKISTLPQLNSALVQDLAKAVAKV
Chain of human cyclin D1-CDK4 (P11802 whole entry): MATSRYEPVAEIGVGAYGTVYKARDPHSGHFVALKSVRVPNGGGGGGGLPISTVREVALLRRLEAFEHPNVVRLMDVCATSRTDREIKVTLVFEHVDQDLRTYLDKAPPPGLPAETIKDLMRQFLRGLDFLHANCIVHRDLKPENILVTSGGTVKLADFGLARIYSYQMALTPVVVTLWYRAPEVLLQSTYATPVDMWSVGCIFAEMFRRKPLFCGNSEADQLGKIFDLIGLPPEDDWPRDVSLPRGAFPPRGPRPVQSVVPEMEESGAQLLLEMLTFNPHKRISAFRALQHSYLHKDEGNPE
Chain of human cyclin D1-CDK4 (P24385 whole entry partner): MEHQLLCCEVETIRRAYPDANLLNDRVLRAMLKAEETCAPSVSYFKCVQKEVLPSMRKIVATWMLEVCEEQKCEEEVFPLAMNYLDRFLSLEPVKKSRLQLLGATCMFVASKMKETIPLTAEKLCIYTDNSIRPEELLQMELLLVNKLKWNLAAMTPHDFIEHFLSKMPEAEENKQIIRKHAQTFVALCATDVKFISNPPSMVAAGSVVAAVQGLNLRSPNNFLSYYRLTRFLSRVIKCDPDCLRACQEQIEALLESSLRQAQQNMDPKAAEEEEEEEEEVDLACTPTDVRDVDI

Ki (human cyclin B-CDK1) [nM] | Ki (human cyclin E-CDK2) [nM] | Ki (human cyclin D1-CDK4) [nM] | Compound
1 | 1 | 2 | COc1ccc(F)c(F)c1C(=O)c1sc(NC2CCN(S(C)(=O)=O)CC2)nc1N [Example 14, [4-Amino-2-(1-methanesulfonylpiperidin-4-ylamino)thiazol-5-yl]-(2,3-difluoro-6-methoxyphenyl)methanone]
3 | 5 | 6 | CS(=O)(=O)N1CCC(Nc2nc(N)c(C(=O)c3c(F)cccc3F)s2)CC1 [Example 17, [4-Amino-2-(1-methanesulfonyl-piperidin-4-ylamino)thiazol-5-yl]-(2,6-difluorophenyl)methanone]
